This is an account of results in the supplement of paper PMC10307832.

Common to all, as to assay: relative viability (nuclei count vs DMSO), 5 days (fraction); higher = more cells survive
Compound in assay [1]: CC(C)(C)c1nc(-c2cccc(NS(=O)(=O)c3c(F)cccc3F)c2F)c(-c2ccnc(N)n2)s1 [Dabrafenib] + Cc1nc(Nc2ncc(C(=O)Nc3c(C)cccc3Cl)s2)cc(N2CCN(CCO)CC2)n1 [Dasatinib] (partner 0.075 µM)
Summed up:
(§1)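 Nuclei were stained with Hoechst during a one-step fixation (final 0.05% Triton X-100, 1% formaldehyde, 1 ug/ml Hoechst) carried out 5 days after dosing, then counted on 4× images. The cells, lung cancer lines in 1536-well plates, had been dosed by pin tool the day after seeding with one drug alone or a fixed anchor-drug dose plus five library-drug doses (not always all listed) in √10 steps. Relative viability is the nuclei count in treated wells divided by that in vehicle wells, and each value is the median of duplicate plates.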

Compound in assay [2]: NC(=O)c1ccc(N(C(N)=O)c2c(F)cccc2F)nc1-c1ccc(F)cc1F [VX-702] + CC(C)C[C@H](NC(=O)[C@H](Cc1ccccc1)NC(=O)c1cnccn1)B(O)O [Bortezomib] (partner 0.002 µM)
Summed up:
as §1

Compound in assay [3]: NC(=O)c1ccc(N(C(N)=O)c2c(F)cccc2F)nc1-c1ccc(F)cc1F [VX-702] + Cc1cc(Nc2cc(N3CCN(C)CC3)nc(Sc3ccc(NC(=O)C4CC4)cc3)n2)n[nH]1 [Tozasertib] (partner 0.1 µM)
Summed up:
as §1

Compound in assay [4]: NC(=O)c1ccc(N(C(N)=O)c2c(F)cccc2F)nc1-c1ccc(F)cc1F [VX-702] + Nc1nc2[nH]cc(CCc3ccc(C(=O)N[C@@H](CCC(=O)O)C(=O)O)cc3)c2c(=O)[nH]1 [Pemetrexed] (partner 0.2 µM)
Summed up:
as §1

On to NCI-H3122, for which the relative viability in assay [1] (first compound 0.003 µM) was found to be 0.773; in assay [1] (first compound 0.009487 µM) it was 0.767; in assay [1] (first compound 0.03 µM), 0.908; in assay [1] (first compound 0.09487 µM), 0.793; in assay [1] (first compound 0.3 µM), 0.75; in assay [2] (first compound 0.02 µM), 0.991. Moreover, the relative viability in assay [2] (first compound 0.2 µM) turned out to be 0.958; in assay [2] (first compound 0.6325 µM) it was 0.987; in assay [2] (first compound 2 µM), 0.931; in assay [3] (first compound 0.02 µM) it was 0.328; in assay [3] (first compound 0.2 µM) it was 0.34; in assay [3] (first compound 0.6325 µM), 0.379. Also, the relative viability in assay [3] (first compound 2 µM) was found to be 0.49; in assay [4] (first compound 0.02 µM), 0.21; in assay [4] (first compound 0.2 µM), 0.194; in assay [4] (first compound 0.6325 µM), 0.199; in assay [4] (first compound 2 µM) it was 0.187.
